These results are taken from patent US7812014B2, “Bicyclic 6-alkylidene-penems as β-lactamase inhibitors” (priority 2002, dated 2010).

Molecules are shown by their SMILES. Counter-ions that a name gives are not always drawn. Like-named read-outs stand apart in the source and are kept apart here. Some results are limits rather than exact numbers.

One assay deals with class B enzyme CcrA (Bacteroides fragilis, UniProt P25910). The assay can be described thus: IC50 determination, β-lactamase inhibition (nitrocefin, spectrophotometric). The format is biochemical. How it is done: (§1) IC50 Determination for the Penem Inhibitor
Chain of class B enzyme CcrA (P25910 19-249): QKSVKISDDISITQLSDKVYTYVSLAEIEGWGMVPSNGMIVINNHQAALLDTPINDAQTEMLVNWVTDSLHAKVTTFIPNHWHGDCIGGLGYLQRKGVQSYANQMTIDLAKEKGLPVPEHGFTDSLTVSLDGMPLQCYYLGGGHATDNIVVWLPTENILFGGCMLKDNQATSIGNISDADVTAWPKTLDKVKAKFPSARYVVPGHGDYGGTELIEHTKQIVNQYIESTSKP
(§2) β-Lactamase inhibitory activity of the penem inhibitors was determined spectrophotometrically as described by Bush et al., [Bush, K., Macalintal, C., Rasmussen, B. A., Lee, V. and Yang, Y. Antimicrobial Agents and Chemotherapy 1993, 37, 851]. Homogeneously purified class A β-lactamases TEM-1 from E. coli and Imi-1 from Enterobacter cloacae, class B enzyme CcrA from Bacteroides fragilis and class C enzyme AmpC from Enterobacter cloaca were employed in the assay. The enzyme concentrations for TEM-1, Imi-1, CcrA and AmpC were 4.3, 7.1, 1.2 and 2.1 nM, respectively. A wide range of inhibitor concentrations were prepared in 50 mM PO4, pH 7.0 to include the possible IC50 values. The substrate used to initiate the enzyme reaction was nitrocefin at 50 μg/ml in the same buffer as the inhibitor. Initially the enzyme and inhibitor (20 μl each) were preincubated for 10 minutes at 25° C. prior to the addition of 160 μl volume of nitrocefin. Initial rates of hydrolysis were monitored for 5 minutes at 495 nm using a Molecular Devices Spectra Max 250 with kinetic protocol of SoftMax Program. Readings from the Spectra Max 250 were exported and transferred to Microsoft Excel. The percent of inhibition of each inhibitor concentration was calculated based on the control enzyme activity. The inhibitor concentration that caused a 50% reduction in the enzymatic activity (IC50) was determined graphically.

Assay [1] concerns the target class A β-lactamase Imi-1 (Enterobacter cloacae, UniProt Q46991). Described as above. The format is biochemical. How it is done: as §1, §2
Assay [2] has as its target class A β-lactamase TEM-1 (Escherichia coli, UniProt P62593). The assay is described as above. The format is biochemical, E. coli. The following applies: enzyme 4.3 nM; 10 minutes preincubation at 25° C.; nitrocefin 50 μg/ml; pH 7.0. How it is done:
as §1, §2

The target in another assay is class C enzyme AmpC (Enterobacter cloacae, UniProt P05364). Kind of assay: biochemical. On the set-up: species or system Enterobacter cloaca. The following applies: enzyme 2.1 nM; 10 minutes preincubation at 25° C.; nitrocefin 50 μg/ml; pH 7.0; read-out: IC50 (nM) Class C AmpC. How it is done:
as §1, §2

The test system of assay [3] is Clinical isolates that have been adapted to cause infection in mice. The assay can be described thus: In vivo antibacterial protection, 7 day survival of infected mice. On the set-up: species or system mice strain CD-1. To be noted: Mus musculus, 168 h. The text has this: In Vivo Antibacterial Protection
Female mice strain CD-1, approximately 18-22 grams, were received from Charles River Laboratories and quarantined 7 days prior to use. In addition, mice may be rendered neutropenic using cytoxan.
Clinical isolates that have been adapted to cause infection in mice, are used in the experiment, including infections with strains of E. coli, K. pneumoniae, M. morganii, E. cloacae, S. marcescens, C. freundii, staphylococci, streptococci, P. aeruginosa and N. gonorrhoeae.
Mice are challenged by injecting 0.5 ml intraperitoneally or 0.05 ml intranasally of a predetermined bacterial inoculum suspended in broth, saline or hog gastric mucin (supplemented with dried bovine hemoglobin for N. gonorrhoeae). […] Antibacterial doses (dose concentration prepared by two fold serial dilutions of the antibiotic) are dissolved or suspended in 0.2% aqueous agar or methocel, phosphate buffered saline or an adjuvant are administered orally, subcutaneously or intravenously in the following manner: • a) Orally or subcutaneously: Dose volume of 0.5 ml administered ½ hr after infection. A second dose may be administered 3 hr. after infection for treatment of infections with more virulent organisms. • b) Intravenously: Dose volume of 0.2 ml, administered ½ hr. after infection. For the treatment of infections with more virulent organisms, more doses, up to 48 hr may be administered. (Intravenous dosing will not exceed 3 doses/24 hr period.) • c) Oral pretreatment: Under special circumstances, the pH of the stomach needs to be adjusted in order to increase the gastric stability of the antibiotic. For this purpose, 0.5 ml of phosphate buffered saline (pH7.8, 0.06M) (or specific approved adjuvant) is administered orally ½ hr after infection, followed 5 minutes later by 0.5 ml of antibiotic (also orally) contained in phosphate buffered saline (pH7.8, 0.06M). Animal Species
A detailed explanation as to the number of animals needed for the determination of in vivo efficacy follows: • A) Novel antibiotics are tested at 5 different dose levels with 5 mice per dose level at each of three routes of administration (oral, subcutaneous and intravenous). […] This would require 25 mice/route with 3 routes/antibiotic or 75 mice per novel compound tested. One to two novel antibiotics will be tested per experiment (75-150 mice) • B) The effectiveness of the new compound must be compared to that of a standard, or antibiotic of known effectiveness. Known or previously tested antibiotics are tested at 5 dose levels with 5 mice per dose level by a single route of administration, for a total of 25 mice/antibiotic. Usually 3-6 antibiotics will be tested per experiment. (75-150 mice). • C) Untreated controls—In each of the above tests, untreated animals are infected with 3 different concentrations of bacterial inoculum with 10 mice per concentration (30 mice total in each and every test). These untreated controls are used to determine and maintain the infection level between 10-100 LD50s as required for test to test comparison and validity. Determination of Protective Effects of Antibacterial Agents:
The protective effects of the antibacterial agent(s) are measured by the survival of the infected untreated as compared to the treated animals. […] A census of survivors is taken twice daily and at that time dead as well as moribund animals are removed. […] The test is performed three times on separate days to provide a statistically valid number of animals and to minimize variation in test results on a day to day and test to test basis.

Setting [4] is: enzyme 1.2 nM, 10 minutes preincubation at 25° C., nitrocefin 50 μg/ml, pH 7.0, read-out: IC50 (nM) Class B Ccr.
Setting [5] is: enzyme 7.1 nM, 10 minutes preincubation at 25° C., nitrocefin 50 μg/ml, pH 7.0, read-out: IC50 (nM) Class A Imi.
The mark [6] stands for this setting: Ratio of Piperacillin vs. Inhibitor not given, read-out: ED50.

What is called IC50 is the concentration at which inhibition is half-maximal. As a reminder, the ED50 is the dose that gives a 50% effect, or the effect in half of the subjects.

Chain of class C enzyme AmpC (P05364 21-381): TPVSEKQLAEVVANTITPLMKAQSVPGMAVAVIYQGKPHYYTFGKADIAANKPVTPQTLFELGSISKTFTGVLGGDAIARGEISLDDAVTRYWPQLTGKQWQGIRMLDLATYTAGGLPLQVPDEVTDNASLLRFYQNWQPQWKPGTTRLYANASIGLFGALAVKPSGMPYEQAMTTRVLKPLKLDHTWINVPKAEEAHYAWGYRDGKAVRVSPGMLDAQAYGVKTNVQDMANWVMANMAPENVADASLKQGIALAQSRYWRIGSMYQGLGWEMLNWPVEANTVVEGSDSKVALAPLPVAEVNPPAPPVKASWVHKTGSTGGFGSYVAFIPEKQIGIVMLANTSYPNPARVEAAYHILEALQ
Chain of class A β-lactamase TEM-1 (P62593 24-286 limits assumed): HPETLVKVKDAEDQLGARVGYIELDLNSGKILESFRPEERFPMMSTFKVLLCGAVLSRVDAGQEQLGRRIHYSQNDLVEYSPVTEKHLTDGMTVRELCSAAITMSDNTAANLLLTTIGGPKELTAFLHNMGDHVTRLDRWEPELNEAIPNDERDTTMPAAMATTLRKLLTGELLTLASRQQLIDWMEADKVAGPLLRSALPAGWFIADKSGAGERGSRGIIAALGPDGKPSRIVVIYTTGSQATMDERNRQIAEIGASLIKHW
Chain of class A β-lactamase Imi-1 (Q46991 28-292): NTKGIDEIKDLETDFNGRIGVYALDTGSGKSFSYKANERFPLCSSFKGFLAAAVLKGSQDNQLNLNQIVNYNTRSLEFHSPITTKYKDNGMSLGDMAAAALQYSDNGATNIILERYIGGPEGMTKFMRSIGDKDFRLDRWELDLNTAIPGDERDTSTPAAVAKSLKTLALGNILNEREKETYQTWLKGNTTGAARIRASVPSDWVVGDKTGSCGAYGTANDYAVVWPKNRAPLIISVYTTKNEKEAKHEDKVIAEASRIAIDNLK

As to `CC(=O)N1CCc2sc(/C=C3/C(=O)N4C(C(=O)[O-])=CS[C@H]34)cc2C1.[Na+]` (single isomer, unassigned) [Example 34, Sodium salt], the half-inhibitory concentration (IC50) on class B enzyme CcrA (setting [4]) was found to be 99 nM; in assay [1] (setting [5]), 34 nM; in assay [2], 4.2 nM; on class C enzyme AmpC, 6.5 nM.
Regarding `CN1CCn2cc(/C=C3/C(=O)N4C(C(=O)O)=CS[C@H]34)nc2C1` [Example 2, (5R),(6Z)-6-(7-Methyl-5,6,7,8-tetrahydroimidazo[1,2-a]pyrazin-2-ylmethylene)-7-oxo-4-thia-1-aza-bicyclo[3.2.0]hept-2-ene-2-carboxylic acid, sodium salt], the half-maximal inhibitory concentration (IC50) was 120 nM at class B enzyme CcrA (setting [4]), 22 nM in assay [1] (setting [5]), 4.4 nM in assay [2] and 5.8 nM on class C enzyme AmpC. In addition, the ED50 in assay [3] (Ratio of Piperacillin vs. Inhibitor 2:1, read-out: ED50) was over 64 mg/kg.
`O=C(O)C1=CS[C@@H]2/C(=C\c3cn4c(n3)CNCC4)C(=O)N12` [Example 3, (5R),(6Z)-7-Oxo-6-(5,6,7,8-tetrahydroimidazo[1,2-a]pyrazin-2-ylmethylene)-4-thia-1-azabicyclo[3.2.0]hept-2-ene-2-carboxylic acid, sodium salt]: the IC50 against class B enzyme CcrA was found to be 320 nM; in assay [1], 28 nM; in assay [2] it was 5.4 nM; on class C enzyme AmpC, 6.2 nM. In assay [3] (Ratio of Piperacillin vs. Inhibitor 4:1, read-out: ED50), the 50% effective dose (ED50) lay in the range of 16 to 32 mg/kg.
`O=C(O)C1=CS[C@@H]2/C(=C\c3cc4n(n3)CCC4)C(=O)N12` [Example 8, (5R),(6Z)-6-(5,6-Dihydro-4H-pyrrolo[1,2-b]pyrazol-2-ylmethylene)-7-oxo-4-thia-1-azabicyclo[3.2.0]hept-2-ene-2-carboxylic acid, sodium salt]: the half-maximal inhibitory concentration (IC50) on class B enzyme CcrA (setting [4]) worked out at 14 nM; in assay [1] (setting [5]), 50 nM; in assay [2] it was 1.2 nM; at class C enzyme AmpC, 1.5 nM.
Regarding `CN1Cc2nc(/C=C3/C(=O)N4C(C(=O)O)=CS[C@H]34)cn2CC1=O` [Example 10, (5R),(6Z)-6-(7-Methyl-6-oxo-5,6,7,8-tetrahydro-imidazo[1,2-a]pyrazin-2-ylmethylene)-7-oxo-4-thia-1-aza-bicyclo[3.2.0]hept-2-ene-2-carboxylic acid sodium salt], the IC50 is 140 nM at class B enzyme CcrA (setting [4]), 65 nM in assay [1] (setting [5]), 10 nM in assay [2] and 3 nM on class C enzyme AmpC.
For `O=C(O)C1=CS[C@@H]2/C(=C\c3cc4n(n3)CCOC4=O)C(=O)N12` [Example 14, (5R,6Z)-7-oxo-6-[(4-oxo-6,7-dihydro-4H-pyrazolo[5,1-c][1,4]oxazin-2-yl)methylene]-4-thia-1-azabicyclo[3.2.0]hept-2-ene-2-carboxylic Acid] the same measures were 26 nM, 68 nM, 2.5 nM and 3.8 nM.
For `O=C(O)C1=CSC2C(=Cc3cc4c(s3)CCOC4)C(=O)N12` (stereo not shown) [Example 15, 6-(6,7-Dihydro-4H-thieno[3,2-c]pyran-2-ylmethylene)-7-oxo-4-thia-1-aza-bicyclo[3.2.0]hept-2-ene-2-carboxylic acid] the same measures were 14 nM, 8.6 nM, 1.2 nM and 3.8 nM.
For the compound `O=C(O)C1=CSC2C(=Cc3cc4c(s3)CCSC4)C(=O)N12` (stereo not shown) [Example 16, 6-(6,7-Dihydro-4H-thieno[3,2-c]thiopyran-2-ylmethylene)-7-oxo-4-thia-1-aza-bicyclo[3.2.0]hept-2-ene-2-carboxylic acid], the IC50 amounted to 12 nM at class B enzyme CcrA (setting [4]), 25 nM in assay [1] (setting [5]), 3.1 nM in assay [2] and 4.2 nM at class C enzyme AmpC.
For `CCOC(=O)N1CCc2sc(C=C3C(=O)N4C(C(=O)O)=CSC34)cc2C1` (stereo not shown) [Example 18, 2-(2-Carboxy-7-oxo-4-thia-1-aza-bicyclo[3.2.0]hept-2-en-6-ylidenemethyl)-6,7-dihydro-4H-thieno[3,2-c]pyridine-5-carboxylic acid ethyl ester] the same measures were 120 nM, 50 nM, 2.8 nM and 9.2 nM.
With `O=C(O)C1=CS[C@@H]2/C(=C\c3cn4c(n3)CN(Cc3ccccc3)CC4)C(=O)N12` [Example 20, (5R),(6Z)-6-(7-Benzyl-5,6,7,8-tetrahydroimidazo[1,2-a]pyrazin-2-ylmethylene)-7-oxo-4-thia-1-azabicyclo[3.2.0]hept-2-ene-2-carboxylic acid, sodium salt], the concentration for half-maximal inhibition (IC50) on class B enzyme CcrA (setting [4]) turned out to be 18 nM; in assay [1] (setting [5]), 9.6 nM; in assay [2], 1.4 nM; at class C enzyme AmpC, 3.1 nM.
Regarding `O=C(O)C1=CS[C@@H]2/C(=C\c3cc4c(s3)CCN(Cc3cccnc3)C4)C(=O)N12` [Example 21], the IC50 was determined as 280 nM at class B enzyme CcrA (setting [4]), 40 nM in assay [1] (setting [5]), 9.8 nM in assay [2] and 18 nM on class C enzyme AmpC.
Turning to `O=C([O-])C1=CS[C@@H]2/C(=C\c3cc4n(n3)CSCC4)C(=O)N12.[Na+]` [Example 28, (5R)(6Z)-6-(4,5-Dihydro-6-thia-1,7a-diazainden-2-ylmethylene)-7-oxo-4-thia-1-azabicyclo[3.2.0]hept-2-ene-2-carboxylic acid, sodium salt], the ED50 in assay [3] (setting [6]) is 31 mg/kg.
Take `O=C(O)C1=CS[C@@H]2/C(=C\c3cnc4n3CCSC4)C(=O)N12` [Example 30, (5R),(6Z)-6-(5,6-Dihydro-8-H-imidazo[2,1-c][1,4]thiazin-3-ylmethylene)-7-oxo-4-thia-1-azabicyclo[3.2.0]hept-2-ene-2-carboxylic acid]: the IC50 on class B enzyme CcrA (setting [4]) worked out at 7.8 nM; in assay [1] (setting [5]), 2300 nM; in assay [2], 2.9 nM; at class C enzyme AmpC it was 2.5 nM.
Turning to `O=C([O-])C1=CS[C@@H]2/C(=C\c3cc4n(n3)CCS4)C(=O)N12.[Na+]` [Example 32, (5R)(6Z)-6-(2,3-Dihydropyrazolo[5,1-b]thiazol-6-ylmethylene)-7-oxo-4-thia-1-azabicyclo[3.2.0]hept-2-ene-2-carboxylic acid, sodium salt], in assay [3] (setting [6]), the median effective dose (ED50) is 46 mg/kg.
